Measurements published in publication PMC5078989, “Targeted inhibition of the COP9 signalosome for treatment of cancer” (Nature Communications, 2016).
pEC50: −log10 of the molar value.

Test system: panel of cancer cell lines
Assay: Cell viability (CellTiter-Glo) dose-response across cancer cell line panel;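 on pEC50: after 72 h compound incubation with CellTiter-Glo ATP readout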
Type: cell-based, human
Settings: for pEC50: Homo sapiens
From the text: Next, we explored the effect of CSN5 inhibition on the viability of cancer cells. To obtain a comprehensive picture, we generated dose–response curves with a CSN5 inhibitor across more than 500 cancer cell lines in a previously described standardized setting[47] (Supplementary Data 1).
A standardized CellTiter-Glo Assay (Promega #G7570) based on the quantification of ATP was applied according to the manufacturer's protocol to measure the amount of viable cells in culture. In brief, cells were seeded into 384-well plates at optimal density for each cell line. After 4 h, compounds were added at different concentrations in growth medium and incubated for another 72 h in a humidifying chamber at 37 °C and 5% CO2. […] EC50 values were calculated from the plot of percentage of inhibition versus inhibitor concentration using the nonlinear regression analysis software Origin 7.5SR6 (OriginLab Corp.).

SMILES: COCc1ccccc1NCc1ccc([C@@H]2[C@H](O)CCCc3cncn32)c(-c2ccccc2Cl)c1 [CSN5i-2e, (5R,6R)-5-(2′-chloro-5-(((2-(methoxymethyl)phenyl)amino)methyl)-[1,1′-biphenyl]-2-yl)-6,7,8,9-tetrahydro-5H-imidazo[1,5-a]azepin-6-ol]
- AMAX (59M cells): -44.1889
- AMAX (92.1 cells): -96.1867
- AMAX (A101D cells): -85.3496
- AMAX (A2780 cells): -96.2609
- AMAX (A-704 cells): -60.7987
- AMAX (ABC-1 cells): -95.9302
- AMAX (AM-38 cells): -94.7284
- AMAX (AsPC-1 cells): -87.4169
- AMAX (BFTC-909 cells): -56.5002
- AMAX (BICR 6 cells): -77.6622
- AMAX (BICR 16 cells): -89.8558
- AMAX (Calu-6 cells): -67.9674
- AMAX (DU4475 cells): -97.6355
- AMAX (EFM-192A cells): -84.5576
- AMAX (FaDu cells): -85.1498
- AMAX (GP2d cells): -5.479
- AMAX (HARA cells): -90.816
- AMAX (HCC1143 cells): -51.336
- AMAX (HCC1187 cells): -85.4618
- AMAX (HD-MY-Z cells): -75.4546
- AMAX (HEC-151 cells): -93.7534
- AMAX (HEL cells): -96.2302
- AMAX (HL-60 cells): -99.3648
- AMAX (HLC-1 cells): -73.0832
- AMAX (HLE cells): -72.0117
- AMAX (HLF cells): -45.3286
- AMAX (HSC-4 cells): -74.8911
- AMAX (HT-29 cells): -73.0471
- AMAX (HUP-T4 cells): -52.1939
- AMAX (Hep3B cells): -93.3733
- pEC50 (59M, 59M cells): < 4.52
- pEC50 (92.1 cells): 4.84
- pEC50 (639-V, 639-V cells): 4.64
- pEC50 (697 cells): 5.02
- pEC50 (769-P, 769-P cells): 4.89
- pEC50 (786-0, 786-O cells): 5.20
- pEC50 (1321-N1, 1321N1 cells): 4.89
- pEC50 (8505C, 8505C cells): 5.05
- pEC50 (A4/Fuk cells): 4.84
- pEC50 (A101D, A101D cells): 5.01
- pEC50 (A204, A-204 cells): 4.82
- pEC50 (A498, A-498 cells): 4.86
- pEC50 (A549, A549 cells): 4.98
- pEC50 (A673, A-673 cells): 4.84
- pEC50 (A2058, A2058 cells): 4.63
- pEC50 (A2780, A2780 cells): 5.07
- pEC50 (A-375, A-375 cells): 4.98
- pEC50 (ABC-1, ABC-1 cells): 5.44
- pEC50 (ACC-MESO-1, ACC-MESO-1 cells): < 4.52
- pEC50 (AM-38, AM-38 cells): 4.92
- pEC50 (AML-193 cells): 4.72
- pEC50 (AN3-CA, AN3 CA cells): < 4.52
- pEC50 (ASPC1, AsPC-1 cells): 4.87
- pEC50 (BC-3C cells): 5.09
- pEC50 (BEN cells): 4.98
- pEC50 (BFTC-909, BFTC-909 cells): 4.88
- pEC50 (BHY cells): 4.89
- pEC50 (BICR 6 cells): 5.01
- pEC50 (BICR 16 cells): 4.96
- pEC50 (BICR 18 cells): < 4.52
- pEC50 (BICR 31 cells): 4.71
- pEC50 (BT-16, BT-16 cells): 4.74
- pEC50 (BT-474, BT-474 cells): 4.94
- pEC50 (BT-549, BT-549 cells): 4.71
- pEC50 (C3A, C3A cells): 5.02
- pEC50 (CAKI-2, Caki-2 cells): 4.95
- pEC50 (CAL-12T, CAL-12T cells): 5.08
- pEC50 (CAL-27, CAL 27 cells): 4.92
- pEC50 (CAL-29 cells): 4.93
- pEC50 (CAL-85-1, CAL-85-1 cells): 4.73
- pEC50 (CAL-120, CAL-120 cells): 5.04
- pEC50 (CAL-148, CAL-148 cells): 5.02
- pEC50 (CAMA-1, CAMA-1 cells): 4.96
- pEC50 (CAPAN-1, Capan-1 cells): 5.13
- pEC50 (CCRF-HSB-2, CCRF-HSB-2 cells): 5.36
- pEC50 (CEM/C1, CEMC1 cells): 5.16
- pEC50 (CFPAC-1, CFPAC-1 cells): 4.94
- pEC50 (CL-14 cells): 4.95
- pEC50 (CL-34 cells): 4.95
- pEC50 (CMK, CMK cells): 5.09
- pEC50 (CMK-86, CMK-86 cells): 5.13
- pEC50 (COLO 201, COLO 201 cells): 4.90
- pEC50 (COLO 205, COLO 205 cells): 4.93
- pEC50 (COLO 320, COLO-320 cells): 5.08
- pEC50 (COLO 699, COLO-699 cells): 5.00
- pEC50 (COLO 704, COLO-704 cells): 4.90
- pEC50 (COLO-678, COLO-678 cells): 4.78
- pEC50 (COLO-679, COLO-679 cells): 4.87
- pEC50 (COLO-741, COLO 741 cells): 4.57
- pEC50 (COLO-829, COLO 829 cells): 4.94
- pEC50 (COR-L23, COR-L23 cells): 5.07
- pEC50 (COR-L105, COR-L105 cells): 4.88
- pEC50 (COV362, COV362 cells): 4.97
- pEC50 (CW-2, CW-2 cells): 5.02
- pEC50 (Calu-6, Calu-6 cells): 5.02
- pEC50 (ChaGo-K-1, ChaGo-K-1 cells): 4.89
- pEC50 (Ci-1, CI-1 cells): 5.54
- pEC50 (DB, DB cells): 5.07
- pEC50 (DLD-1, DLD-1 cells): < 4.52
- pEC50 (DMS-53, DMS 53 cells): 4.75
- pEC50 (DMS-273, DMS 273 cells): 5.00
- pEC50 (DND41, DND-41 cells): 4.90
- pEC50 (DU-4475, DU4475 cells): 4.83
- pEC50 (EBC-1, EBC-1 cells): 4.75
- pEC50 (EFM-19, EFM-19 cells): 4.88
- pEC50 (EFM-192A, EFM-192A cells): 5.21
- pEC50 (EOL1, EOL-1 cells): 5.46
- pEC50 (FaDu, FaDu cells): 4.99
- pEC50 (Fu97, FU97 cells): 5.07
- pEC50 (G-401, G-401 cells): 5.10
- pEC50 (G-402, G-402 cells): 4.95
- pEC50 (GAMG, GAMG cells): < 4.52
- pEC50 (GDM-1, GDM-1 cells): 5.03
- pEC50 (GI-1, GI-1 cells): 4.81
- pEC50 (GP2d, GP2d cells): < 4.52
- pEC50 (HARA cells): 4.85
- pEC50 (HCC15, HCC-15 cells): 4.64
- pEC50 (HCC44, HCC-44 cells): 5.24
- pEC50 (HCC70, HCC70 cells): 4.88
- pEC50 (HCC95, HCC-95 cells): 4.82
- pEC50 (HCC827, HCC827 cells): 4.81
- pEC50 (HCC1143, HCC1143 cells): 4.95
- pEC50 (HCC1187, HCC1187 cells): 4.97
- pEC50 (HCC1500, HCC1500 cells): 4.93
- pEC50 (HCC1588, HCC-1588 cells): 5.12
- pEC50 (HCC1806, HCC1806 cells): 4.64
- pEC50 (HCC1954, HCC1954 cells): 4.81
- pEC50 (HCC-56 cells): 4.73
